Measured values taken from patent publication US20240309016A1, “MACROCYCLIC HETEROCYCLE COMPOUNDS AND USE THEREOF” (TAKEDA PHARMACEUTICAL COMPANY LIMITED, priority 2023, published 2024).
Counter-ions that a name gives are not always drawn. Like-named read-outs stand apart in the source and are kept apart here.

Experiments:
human OX2 receptor [1] = target: T1, human OX2 receptor (Homo sapiens, UniProt O43614); test: Measurement of orexin type 2 receptor agonist activity (Experimental Example 3; calcium 5 dye, FLIPR Tetra); assay type: cell-based; conditions: compound at 1 μM; CHO cells expressing human OX2 receptor; DMSO = 0%, 10 nM orexin A (human) = 100%
T1 construct: expressed in transfected cells
T1 sequence (O43614 1-444): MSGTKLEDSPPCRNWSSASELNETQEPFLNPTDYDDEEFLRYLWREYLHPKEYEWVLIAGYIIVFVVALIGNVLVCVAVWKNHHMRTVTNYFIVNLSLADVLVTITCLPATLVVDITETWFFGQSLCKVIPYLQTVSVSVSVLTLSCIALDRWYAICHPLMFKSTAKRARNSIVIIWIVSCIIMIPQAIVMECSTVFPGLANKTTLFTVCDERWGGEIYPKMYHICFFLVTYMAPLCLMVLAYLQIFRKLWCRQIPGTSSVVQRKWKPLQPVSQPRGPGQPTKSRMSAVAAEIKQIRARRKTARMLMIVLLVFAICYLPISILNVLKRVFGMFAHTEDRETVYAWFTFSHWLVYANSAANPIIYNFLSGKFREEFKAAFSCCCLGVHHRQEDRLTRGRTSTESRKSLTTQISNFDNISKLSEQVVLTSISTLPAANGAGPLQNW
Method: In order to obtain cell clones that stably express human orexin type 2 receptor, human orexin type 2 (residues 1-444, NCBI Reference Sequence: AK314279) was constructed in a pcDNA3.1 (+) vector (Invitrogen) to express in mammalian cells. This plasmid DNA was transfected into CHO-K1 cells by electroporation, and stable clones were obtained by limiting dilution using resistance to G418 as a selection marker.
CHO cells in which human OX2 receptor was forcibly expressed were seeded at 5,000 cells/well into a 384-well black transparent bottom plate (Costar) in 25 ul complete media, and were then incubated at 37° C., 5% CO2 for 1 day. The next day, 25 ul of 2× calcium 5 dye (Molecular Devices) in assay buffer (HBSS (Thermo Fisher Scientific), 20 mM HEPES (Thermo Fisher Scientific), 2.5 mM probenecid). After incubation in a 5% CO2 incubator at 37° C. for 40 minutes, it was incubated at room temperature for another 20 minutes. Add 5 μL/well of the test compound diluted with assay buffer B (HBSS, 20 mM HEPES), using FLIPR Tetra (Molecular Devices) to measure the fluorescence value every 1 second for 1 minute, and then every 2 seconds for 1 minute. It was measured for 1 minute and 40 seconds. The amount of fluorescence value when DMSO is added instead of the test compound is defined as 0%, and the amount of fluorescence value when orexin A (human) (Peptide Institute) with a final concentration of 10 nM is added is defined as 100%. The activity (%) of the test compound was calculated.

human OX2 receptor [2] = target: T1, human OX2 receptor; test: Measurement of orexin type 2 receptor agonist activity (Experimental Example 2; Fluo-4 AM calcium fluorescence, FDSS μCELL); assay type: cell-based; conditions: compound at 3 μM; CHO cells expressing human OX2 receptor; DMSO = 0%, 10 nM orexin A (human) = 100%
Method in brief: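 Agonism was tested in CHO-K1 cells stably expressing human OX2 receptor (residues 1-444), loaded with Fluo-4 AM plus probenecid. Calcium fluorescence was recorded for 1 min 40 s after compound addition. Activity (%) was scaled between DMSO (0%) and 10 nM orexin A (100%) and reported at 3 μM compound.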

Compound | OX2R agonist activity (1 μM, %) (human OX2 receptor [1]) | other results
CCS(=O)(=O)N[C@@H]1[C@@H]2Cc3cccc(c3F)[C@@H](C)c3nc(ccc3C)CNC(=O)N2CC1(F)F (single isomer, unassigned) [Example 105, N-[(9R,15aS,16R)-17,17,20-trifluoro-7,9-dimethyl-1-oxo-2,3,15a,16,17,18-hexahydro-1H,9H,15H-4,8-(azeno)-10,14-(metheno)pyrrolo[1,2-c][1,3]diazacycloheptadecin-16-yl]ethanesulfonamide or N-[(9S,15aS,16R)-17,17,20-trifluoro-7,9-dimethyl-1-oxo-2,3,15a,16,17,18-hexahydro-1H,9H,15H-4,8-(azeno)-10,14-(metheno)pyrrolo[1,2-c][1,3]diazacycloheptadecin-16-yl]ethanesulfonamide] | 106% | 
CCS(=O)(=O)N[C@@H]1[C@@H]2Cc3cccc(c3F)[C@H](C)c3nc(ccc3C)CNC(=O)N2CC1(F)F (single isomer, unassigned) [Example 106] | 90% | 
Cc1ccc2nc1OCc1cccc(c1)C[C@H]1[C@@H](NS(C)(=O)=O)CCN1C(=O)NC2 [Example 68, N-[(16aS,17S)-7-methyl-1-oxo-2,3,16a,17,18,19-hexahydro-1H,10H,16H-4,8-(azeno)-11,15-(metheno)pyrrolo[1,2-j][1,8,10]oxadiazacyclo-octadecin-17-yl]methanesulfonamide] |  | ring closure, yield of all isomers (from Cc1ccc(CNC(=O)OC(C)(C)C)nc1OCc1cccc(C[C@H]2[C@@H](N(COCC[Si](C)(C)C)S(C)(=O)=O)CCN2C(=O)OC(C)(C)C)c1, other bond, di(N-succinimidyl) carbonate / N-methylmorpholine, DIPEA, THF, 7.5 mM, 25.0 °C, 17.0 h, 2 steps): 3.7%; OX2R agonist activity (3 μM, %) (human OX2 receptor [2]): 100%
CCS(=O)(=O)N[C@@H]1[C@@H]2Cc3c(C)ccc(c3F)Oc3nc(ccc3C)CNC(=O)N2CC1(F)F [Example 98, N-[(15aS,16R)-17,17,20-trifluoro-7,13-dimethyl-1-oxo-2,3,15a,16,17,18-hexahydro-1H,15H-4,8-(azeno)-14,10-(metheno)pyrrolo[1,2-j][1,8,10]oxadiazacyclo-heptadecin-16-yl]ethanesulfonamide] | 65% | 
CCS(=O)(=O)N[C@@H]1[C@@H]2Cc3cccc(c3F)Oc3nc(ccc3C)NCC(=O)N2CC1(F)F [Example 99, N-[(15aS,16R)-17,17,20-trifluoro-7-methyl-1-oxo-2,3,15a,16,17,18-hexahydro-1H,15H-4,8-(azeno)-14,10-(metheno)pyrrolo[1,2-j][1,7,10]oxadiazacyclo-heptadecin-16-yl]ethanesulfonamide] | 97% | ring closure, yield of all isomers (from CCS(=O)(=O)N[C@@H]1[C@H](Cc2cccc(Oc3nc(NCC(=O)O)ccc3C)c2F)NCC1(F)F, amide bond, HATU / DIPEA, DMF, 1.74 mM, 25.0 °C, 12.0 h): 13.3%
CCS(=O)(=O)N[C@@H]1[C@@H]2Cc3cccc(c3F)C(F)(F)c3nc(ccc3C)CNC(=O)N2CC1(F)F [Example 100, N-[(15aS,16R)-9,9,17,17,20-pentafluoro-7-methyl-1-oxo-2,3,15a,16,17,18-hexahydro-1H,9H,15H-4,8-(azeno)-14,10-(metheno)pyrrolo[1,2-c][1,3]diazacycloheptadecin-16-yl]ethanesulfonamide] | 84% | ring closure, yield of all isomers (from CCS(=O)(=O)N[C@@H]1[C@H](Cc2cccc(C(F)(F)c3nc(CN)ccc3C)c2F)NCC1(F)F, other bond, CDI/DIPEA, THF, 11.0 mM, 45.0 °C, 16.0 h): 30.8%
CCS(=O)(=O)N[C@@H]1[C@@H]2Cc3ccc(C)c(c3F)Oc3nc(ccc3C)CNC(=O)N2CC1(F)F [Example 101, N-[(15aS,16R)-17,17,20-trifluoro-7,11-dimethyl-1-oxo-2,3,15a,16,17,18-hexahydro-1H,15H-4,8-(azeno)-10,14-(metheno)pyrrolo[1,2-j][1,8,10]oxadiazacyclohept-adecin-16-yl]ethanesulfonamide] | 108% | 
CCS(=O)(=O)N[C@@H]1[C@@H]2Cc3cccc(c3F)Cc3nc(ccc3C)OCC(=O)N2CC1(F)F [Example 102, N-[(15aS,16R)-17,17,20-trifluoro-7-methyl-1-oxo-1,2,15a,16,17,18-hexahydro-9H,15H-4,8-(azeno)-10,14-(metheno)pyrrolo[1,2-d][1,4]oxazacycloheptadecin-16-yl]ethanesulfonamide] | 94% | 
CCS(=O)(=O)N[C@@H]1[C@@H]2Cc3cccc(c3F)Cc3cc(ccc3C)CNC(=O)N2CC1(F)F [Example 103, N-[(15aS,16R)-17,17,20-trifluoro-7-methyl-1-oxo-2,3,15a,16,17,18-hexahydro-1H,9H,15H-4,8:10,14-di(metheno)pyrrolo[1,2-c][1,3]diazacycloheptadecin-16-yl]ethanesulfonamide] | 104% | 
CCS(=O)(=O)N[C@@H]1[C@@H]2Cc3cccc(c3F)Cc3nc(ccc3C)CNC(=O)N2CC1(F)F [Example 104, N-[(15aS,16R)-17,17,20-trifluoro-7-methyl-1-oxo-2,3,15a,16,17,18-hexahydro-1H,9H,15H-4,8-(azeno)-10,14-(metheno)pyrrolo[1,2-c][1,3]diazacycloheptadecin-16-yl]ethanesulfonamide hydrochloride] | 109% | 
CC(C)S(=O)(=O)N[C@@H]1[C@@H]2Cc3cccc(c3F)Oc3nc(ccc3Cl)CNC(=O)N2CC1(F)F [Example 108, N-[(15aS,16R)-7-chloro-17,17,20-trifluoro-1-oxo-2,3,15a,16,17,18-hexahydro-1H,15H-4,8-(azeno)-10,14-(metheno)pyrrolo[1,2-j][1,8,10]oxadiazacyclo-heptadecin-16-yl]propane-2-sulfonamide] | 101% | 
Cc1cc(F)c2nc1Oc1cccc(c1F)C[C@H]1[C@@H](NS(=O)(=O)C(C)C)C(F)(F)CN1C(=O)NC2 [Example 109, N-[(15aS,16R)-5,17,17,20-tetrafluoro-7-methyl-1-oxo-2,3,15a,16,17,18-hexahydro-1H,15H-4,8-(azeno)-10,14-(metheno)pyrrolo[1,2-j][1,8,10]oxadiazacyclo-heptadecin-16-yl]propane-2-sulfonamide] | 108% | 
CC(C)S(=O)(=O)N[C@@H]1[C@@H]2Cc3cccc(c3F)Oc3nc(ccc3C(F)F)CNC(=O)N2CC1(F)F [Example 110, N-[(15aS,16R)-7-(difluoromethyl)-17,17,20-trifluoro-1-oxo-2,3,15a,16,17,18-hexahydro-1H,15H-4,8-(azeno)-10,14-(metheno)pyrrolo[1,2-j][1,8,10]oxadiazacyclo-heptadecin-16-yl]propane-2-sulfonamide] | 108% | 
CCS(=O)(=O)N[C@@H]1[C@@H]2Cc3cccc(c3F)Cc3nc(ccc3C)O[C@@H](C)C(=O)N2CC1(F)F [Example 111, N-[(2S,15aS,16R)-17,17,20-trifluoro-2,7-dimethyl-1-oxo-1,2,15a,16,17,18-hexahydro-9H,15H-4,8-(azeno)-10,14-(metheno)pyrrolo[1,2-d][1,4]oxazacycloheptadecin-16-yl]ethanesulfonamide] | 103% | ring closure, yield of all isomers (from CCS(=O)(=O)N[C@@H]1[C@H](Cc2cccc(Cc3nc(O[C@@H](C)C(=O)O)ccc3C)c2F)NCC1(F)F, amide bond, HATU/DIPEA, DMF, 2.83 mM, 25.0 °C, 16.0 h): 11.8%
